Laboratory results as given in patent US7888363B2, “Viral polymerase inhibitors” (Boehringer Ingelheim International GmbH, priority 2003, dated 2011).

Molecular target: hepatitis C virus RNA dependant polymerase (NS5B) (Hepatitis C virus genotype 1b, UniProt P26663)
Assay: Inhibition of NS5B RNA dependent RNA polymerase activity
Format: biochemical
Details: Table 1; HCV NS5B polymerase
Description: A suitable assay is described in the examples.
Inhibition of NS5B RNA Dependent RNA Polymerase Activity
The compounds of the invention were tested for inhibitory activity against the hepatitis C virus RNA dependant polymerase (NS5B), according to protocol described in WO 03/010141

hepatitis C virus RNA dependant polymerase (NS5B), sequence (P26663 2420-3010): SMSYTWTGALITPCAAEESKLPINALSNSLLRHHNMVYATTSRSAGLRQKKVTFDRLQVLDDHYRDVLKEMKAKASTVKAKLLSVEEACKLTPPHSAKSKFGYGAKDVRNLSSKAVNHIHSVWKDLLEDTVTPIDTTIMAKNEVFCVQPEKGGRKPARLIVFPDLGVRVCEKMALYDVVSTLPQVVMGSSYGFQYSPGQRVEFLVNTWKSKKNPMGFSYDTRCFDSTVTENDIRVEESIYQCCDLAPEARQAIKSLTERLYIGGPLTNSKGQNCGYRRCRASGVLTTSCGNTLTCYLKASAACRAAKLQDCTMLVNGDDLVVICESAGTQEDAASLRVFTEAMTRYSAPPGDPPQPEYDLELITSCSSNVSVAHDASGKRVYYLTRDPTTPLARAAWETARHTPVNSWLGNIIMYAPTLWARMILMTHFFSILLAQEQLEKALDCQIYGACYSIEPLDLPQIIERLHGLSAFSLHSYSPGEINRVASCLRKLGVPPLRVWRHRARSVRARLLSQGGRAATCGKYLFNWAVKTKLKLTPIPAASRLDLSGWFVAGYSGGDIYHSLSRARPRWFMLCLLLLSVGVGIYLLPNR

Compound | IC50
CN(C)C(=O)Cn1c(-c2ccc(Br)cn2)c(C2CCCCC2)c2ccc(C(=O)O)cc21 [Example 1136] | 0.2 to 1 µM
O=C(O)c1ccc2c(C3CCCCC3)c(-c3ccoc3)n(CC(=O)N3CCC(O)CC3)c2c1 [Example 1100] | < 0.2 µM
O=C(O)c1ccc2c(C3CCCCC3)c(-c3ccoc3)n(CC(=O)N3CCSCC3)c2c1 [Example 1012] | < 0.2 µM
CNC(=O)Cn1c(-c2ccccn2)c(C2CCCCC2)c2ccc(C(=O)O)cc21 [Example 1143] | 1 to 10 µM
CN(Cc1cccnc1)C(=O)Cn1c(-c2ccoc2)c(C2CCCCC2)c2ccc(C(=O)O)cc21 [Example 1114] | 0.2 to 1 µM
Cc1ccccc1N(C)C(=O)Cn1c(-c2ccoc2)c(C2CCCCC2)c2ccc(C(=O)O)cc21 [Example 1115] | 1 to 10 µM
CN(C)C(=O)Cn1c(-c2cccs2)c(C2CCCCC2)c2ccc(C(=O)O)cc21 [Example 1035] | < 0.2 µM
O=C(O)c1ccc2c(C3CCCCC3)c(-c3ccoc3)n(CC(=O)N3CC[C@@H]4CCCC[C@@H]4C3)c2c1 [Example 1018] | 1 to 10 µM

Same assay, conditions: Table 2; HCV NS5B polymerase

Compound | IC50
O=C(NS(=O)(=O)C(F)(F)F)c1ccc2c(C3CCCCC3)c(-c3ccoc3)n(CC(=O)N3CCOCC3)c2c1 [Example 2005] | < 0.2 µM
CN(C(=O)c1ccc2c(C3CCCCC3)c(-c3ccoc3)n(CC(=O)N3CCOCC3)c2c1)S(=O)(=O)c1ccccc1 [Example 2023] | 1 to 10 µM
Cc1c(S(=O)(=O)NC(=O)c2ccc3c(C4CCCCC4)c(-c4ccoc4)n(CC(=O)N4CCOCC4)c3c2)sc2ccc(F)cc12 [Example 2020] | < 0.2 µM
O=C(NS(=O)(=O)c1ccc(F)cc1)c1ccc2c(C3CCCCC3)c(-c3ccoc3)n(CC(=O)N3CCOCC3)c2c1 [Example 2015] | < 0.2 µM

Same assay, conditions: Table 3; HCV NS5B polymerase

Compound | IC50
NC(=O)[C@]1(NC(=O)c2ccc3c(C4CCCCC4)c(-c4ccoc4)n(CC(=O)N4CCOCC4)c3c2)CCNC1 [Example 3004] | < 0.2 µM

Same assay, conditions: Table 4; class ranges

Compound | IC50
O=C(NC1(c2csc(Cc3ccccc3)n2)CCC1)c1ccc2c(C3CCCCC3)c(-c3ccoc3)n(CC(=O)N3CCC(N4CCCC4)CC3)c2c1 [Example 4104] | 1 to 10 µM
COC(=O)C1(NC(=O)c2ccc3c(C4CCCCC4)c(-c4ccoc4)n(CC(=O)N4CCOCC4)c3c2)COCOC1 [Example 4080] | 0.2 to 1 µM
O=C(NCc1ccc2c(c1)OCO2)c1ccc2c(C3CCCCC3)c(-c3ccoc3)n(CC(=O)N3CCOCC3)c2c1 [Example 4045] | 0.2 to 1 µM
CN1CCN(C(=O)Cn2c(-c3ccoc3)c(C3CCCCC3)c3ccc(C(=O)NCCc4ccncc4)cc32)CC1 [Example 4035] | 0.2 to 1 µM
CN(C)C(=O)Cn1c(-c2ccoc2)c(C2CCCCC2)c2ccc(C(=O)NCCc3ccccc3)cc21 [Example 4055] | 0.2 to 1 µM
COc1ccc([C@@H](C)NC(=O)c2ccc3c(C4CCCCC4)c(-c4ccoc4)n(CC(=O)N4CCOCC4)c3c2)cc1OC [Example 4063] | 0.2 to 1 µM
N#CC1(NC(=O)c2ccc3c(C4CCCCC4)c(-c4ccoc4)n(CC(=O)N4CCC(N5CCCC5)CC4)c3c2)CCC1 [Example 4090] | < 0.2 µM
CC(C)(NC(=O)c1ccc2c(C3CCCCC3)c(-c3ccoc3)n(CC(=O)N3CCC(N4CCCC4)CC3)c2c1)C(N)=O [Example 4081] | < 0.2 µM
COc1ccc(CNC(=O)c2ccc3c(C4CCCCC4)c(-c4ccoc4)n(CC(=O)N4CCOCC4)c3c2)cc1OC [Example 4006] | < 0.2 µM

Same assay, conditions: Table 7; class ranges

Compound | IC50
O=C(NC1CCCc2ccccc21)c1ccc2c(c1)c(C1CCCCC1)c(-c1ccoc1)n2CC(=O)N1CCC(N2CCCC2)CC1 (stereo not drawn) [Example 7012] | 1 to 10 µM
O=C(Nc1ccccc1)c1ccc2c(c1)c(C1CCCCC1)c(-c1ccoc1)n2CC(=O)N1CCC(N2CCCC2)CC1 [Example 7023] | 1 to 10 µM
CN(C)C(=O)Cn1c(-c2ccoc2)c(C2CCCCC2)c2cc(O)c(C(=O)O)cc21 [Example 7009] | 1 to 10 µM
O=C(O)CCc1cccc(NC(=O)c2ccc3c(c2)c(C2CCCCC2)c(-c2ccoc2)n3CC(=O)N2CCC(N3CCCC3)CC2)c1 [Example 7056] | 1 to 10 µM
O=C(O)CC(NC(=O)c1ccc2c(c1)c(C1CCCCC1)c(-c1ccoc1)n2CC(=O)N1CCC(N2CCCC2)CC1)C(F)(F)F (stereo not drawn) [Example 7051] | 1 to 10 µM
